# In ChEMBL document CHEMBL2073900, “Cellular uptake and efflux of the tea flavonoid (-)epicatechin-3-gallate in the human intestinal cell line Caco-2” (J Pharmacol Exp Ther, 2003):
# Molecular target: ATP-binding cassette sub-family C member 2 (Homo sapiens, UniProt Q92887)
# Test: TP_TRANSPORTER: uptake in membrane vesicle from MRP2-expressing MDCKII cells
# Type: functional, cell membranes
# Settings: dog, mdck-ii
# Sequence of ATP-binding cassette sub-family C member 2 (Q92887 whole entry): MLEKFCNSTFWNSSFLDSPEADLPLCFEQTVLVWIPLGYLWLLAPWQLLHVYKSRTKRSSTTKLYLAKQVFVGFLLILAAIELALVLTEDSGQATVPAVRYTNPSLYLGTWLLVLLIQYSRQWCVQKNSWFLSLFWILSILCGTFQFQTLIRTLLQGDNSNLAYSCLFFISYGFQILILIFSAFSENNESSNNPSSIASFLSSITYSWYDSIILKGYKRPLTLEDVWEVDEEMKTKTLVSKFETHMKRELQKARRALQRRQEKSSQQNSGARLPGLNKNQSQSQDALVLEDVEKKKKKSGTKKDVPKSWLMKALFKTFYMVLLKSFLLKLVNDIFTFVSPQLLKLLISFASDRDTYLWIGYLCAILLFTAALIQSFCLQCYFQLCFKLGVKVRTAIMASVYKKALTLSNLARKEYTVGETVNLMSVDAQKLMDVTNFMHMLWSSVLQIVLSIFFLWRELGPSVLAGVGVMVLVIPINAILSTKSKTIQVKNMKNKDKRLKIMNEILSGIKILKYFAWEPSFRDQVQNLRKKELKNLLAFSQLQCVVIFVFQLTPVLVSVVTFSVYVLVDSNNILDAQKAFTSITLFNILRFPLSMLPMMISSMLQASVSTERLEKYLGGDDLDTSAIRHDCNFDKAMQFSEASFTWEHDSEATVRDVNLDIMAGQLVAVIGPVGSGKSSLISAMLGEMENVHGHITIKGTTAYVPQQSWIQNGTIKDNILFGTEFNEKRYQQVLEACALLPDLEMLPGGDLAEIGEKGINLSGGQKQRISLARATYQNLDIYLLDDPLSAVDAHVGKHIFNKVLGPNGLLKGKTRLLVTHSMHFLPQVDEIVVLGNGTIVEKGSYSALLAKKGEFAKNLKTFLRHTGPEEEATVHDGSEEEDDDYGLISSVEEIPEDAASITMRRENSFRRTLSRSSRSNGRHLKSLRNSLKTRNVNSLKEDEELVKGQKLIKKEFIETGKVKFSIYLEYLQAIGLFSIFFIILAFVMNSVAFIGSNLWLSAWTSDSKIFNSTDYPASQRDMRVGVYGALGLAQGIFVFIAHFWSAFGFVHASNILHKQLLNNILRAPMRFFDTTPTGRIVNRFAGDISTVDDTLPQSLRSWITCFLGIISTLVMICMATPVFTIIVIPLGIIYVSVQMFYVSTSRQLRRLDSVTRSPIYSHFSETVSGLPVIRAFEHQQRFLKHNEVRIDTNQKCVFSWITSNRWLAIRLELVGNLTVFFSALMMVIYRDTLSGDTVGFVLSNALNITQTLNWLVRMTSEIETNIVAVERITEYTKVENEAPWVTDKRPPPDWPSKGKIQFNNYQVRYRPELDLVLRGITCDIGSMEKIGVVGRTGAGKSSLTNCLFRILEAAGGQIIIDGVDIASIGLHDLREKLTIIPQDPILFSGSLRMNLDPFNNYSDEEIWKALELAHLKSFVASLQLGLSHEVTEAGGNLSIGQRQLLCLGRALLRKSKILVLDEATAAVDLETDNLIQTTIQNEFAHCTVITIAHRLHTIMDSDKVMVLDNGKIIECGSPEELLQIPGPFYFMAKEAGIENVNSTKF
smiles,measurement,value
O=C(O[C@@H]1Cc2c(O)cc(O)cc2O[C@@H]1c1ccc(O)c(O)c1)c1cc(O)c(O)c(O)c1 [EPICATECHIN GALLATE],Activity,substrate []
